Molecules are shown by their SMILES.

T1 sequence (P00533 25-1210): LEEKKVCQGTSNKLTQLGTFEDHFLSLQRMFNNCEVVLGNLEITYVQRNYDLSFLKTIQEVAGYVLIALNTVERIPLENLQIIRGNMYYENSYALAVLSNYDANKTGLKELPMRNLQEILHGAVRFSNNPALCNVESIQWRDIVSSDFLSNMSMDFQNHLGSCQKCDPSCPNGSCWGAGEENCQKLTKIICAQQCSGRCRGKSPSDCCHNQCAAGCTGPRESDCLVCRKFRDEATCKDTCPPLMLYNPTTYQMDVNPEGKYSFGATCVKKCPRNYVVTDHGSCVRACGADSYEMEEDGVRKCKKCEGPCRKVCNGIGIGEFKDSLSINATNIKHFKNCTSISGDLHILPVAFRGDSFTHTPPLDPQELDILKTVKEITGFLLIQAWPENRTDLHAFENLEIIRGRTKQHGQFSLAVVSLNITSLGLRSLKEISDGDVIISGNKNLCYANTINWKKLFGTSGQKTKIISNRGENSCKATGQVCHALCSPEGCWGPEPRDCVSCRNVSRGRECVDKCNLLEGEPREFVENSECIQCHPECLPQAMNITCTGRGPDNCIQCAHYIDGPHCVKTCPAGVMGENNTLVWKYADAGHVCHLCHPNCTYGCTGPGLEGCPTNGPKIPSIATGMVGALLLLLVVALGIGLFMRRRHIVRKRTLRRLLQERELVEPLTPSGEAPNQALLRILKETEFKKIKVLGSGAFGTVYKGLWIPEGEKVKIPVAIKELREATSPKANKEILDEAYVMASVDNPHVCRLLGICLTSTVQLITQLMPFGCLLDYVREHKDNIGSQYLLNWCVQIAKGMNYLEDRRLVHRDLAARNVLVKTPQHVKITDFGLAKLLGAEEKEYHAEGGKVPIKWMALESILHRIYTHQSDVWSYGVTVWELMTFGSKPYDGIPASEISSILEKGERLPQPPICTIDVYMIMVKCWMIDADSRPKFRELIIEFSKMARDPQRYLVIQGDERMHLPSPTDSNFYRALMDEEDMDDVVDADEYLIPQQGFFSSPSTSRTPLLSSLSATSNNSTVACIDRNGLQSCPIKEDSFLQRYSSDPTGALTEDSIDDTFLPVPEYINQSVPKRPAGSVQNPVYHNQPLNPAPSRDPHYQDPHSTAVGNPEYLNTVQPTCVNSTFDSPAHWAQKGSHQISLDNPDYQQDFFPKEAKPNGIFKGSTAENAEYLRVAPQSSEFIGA

One assay concerns the target T1, EGF receptor partially purified by A431 cell line (Homo sapiens, UniProt P00533).
T1 construct: A431 cell membrane fraction, which was used for the assay as an enzyme source of partially purified EGF receptor; endogenous in cells; host or cells: A431 human epidermoid cancer cells (membrane fraction, 100,000 G pellet)
The assay can be described thus: EGFR tyrosine kinase inhibitory action (A431 cell membrane fraction, 32P-ATP, Angiotensin II substrate). Format: biochemical. As to conditions: EGF-stimulated, 10 μM ATP, in ice for 30 min. As for the experimental part: Specific method was as follows.
A431 cells were cultured in Dulbecco's Modified Eagle Medium (DMEM) containing 10% of fetal calf serum (FBS) at 37° C. under 5% carbon dioxide gas, and homogenized in a solution containing 10 mM N-2-hydroxyethylpiperazino-N′-2-ethanesulfonic acid (Hepes) buffer (pH 7.4), 0.25 M sucrose and 0.1 mM EDTA, and separated by centrifugation at 3000 G for 5 min. The supernatant was separated by centrifugation at 100,000 G for 30 min to separate A431 cell membrane fraction, which was used for the assay as an enzyme source of partially purified EGF receptor.
The reaction was carried out in ice for 30 min and 6 μL of 10 mg/mL bovine serum albumin and 25 μL of 20% trichloroacetic acid were added to stop the reaction. The reaction mixture was left in ice as it was for 30 min.
The mixture was centrifuged at 5000 G for 2 min and the supernatant was sampled by 40 μL and adsorbed on P81 phosphocellulose paper. […] This rinsing was repeated 4 times. The paper was taken out, the ^32P count was measured on a liquid scintillation counter and this value was taken as A.
Simultaneously, a reaction without the test substance and a reaction without the test substance and EGF were also measured and the counts thereof were taken as B and C, respectively.
The tyrosine kinase inhibitory rate can be determined from the following formula based on these values. Percent Inhibition (%)=100−{(A−C)/(B−C)}×100
The IC50 is the concentration at which inhibition is half-maximal. Higher therefore signals weaker potency. The compound `C=CC(=O)Nc1cc2c(Nc3ccc(F)c(Cl)c3)ncnc2cc1C#CC(C)(C)N1CCC(N(C)C)CC1` [1aa] registered a half-inhibitory concentration (IC50) of 1.7 nM. On the same count and under the same terms, the value for `C=CC(=O)Nc1cc2c(Nc3ccc(F)c(Cl)c3)ncnc2cc1C#CC(C)(C)N(C)C1CCN(C)CC1` [1ab] was 2.1 nM; that for `C=CC(=O)Nc1cc2c(Nc3ccc(F)c(Cl)c3)ncnc2cc1C#CCCN1CCN(C)CC1` [1ac] was less than 1 nM; that for `C=CC(=O)Nc1cc2c(Nc3ccc(F)c(Cl)c3)ncnc2cc1C#CC(C)(C)N1CCNCC1` [1ap] was 2.4 nM.

`C=CC(=O)Nc1cc2c(Nc3ccc(F)c(Cl)c3)ncnc2cc1C#CC(C)(C)N1CCOCC1` [1b]: the concentration for half-maximal inhibition (IC50) amounted to 1.3 nM. The same measure, in the same setting: the value for `COc1cc2ncnc(Nc3ccc(F)c(Cl)c3)c2cc1C#CC(C)(C)N1CCN(C)CC1` [1ba] was 1.1 nM. Same read-out and setting: the value for `CCOc1cc2ncnc(Nc3ccc(F)c(Cl)c3)c2cc1C#CC(C)(C)N1CCN(C(C)=O)CC1` [1baa] was 2.8 nM; that for `CCOc1cc2ncnc(Nc3ccc(F)c(Cl)c3)c2cc1C#CC(C)(C)N(CC)CCC(=O)OC` [1bab] was 5.6 nM; that for `CCOc1cc2ncnc(Nc3ccc(F)c(Cl)c3)c2cc1C#CC(C)(C)N1CCN(S(C)(=O)=O)CC1` [1bad] was 4 nM.

For `CCOc1cc2ncnc(Nc3ccc(F)c(Cl)c3)c2cc1C#CC(C)(C)N1CCN(CCC#N)CC1` [1bae], the IC50 was determined as 2.5 nM. Still for that read-out and setting: then `CCOc1cc2ncnc(Nc3ccc(F)c(Cl)c3)c2cc1C#CC(C)(C)N1CCC(OC)CC1` [1baf], with 3.3 nM; and `CCOc1cc2ncnc(Nc3ccc(F)c(Cl)c3)c2cc1C#CC(CC)(CC)N1CCN(C)CC1` [1bag], with 5.1 nM; and `CCOc1cc2ncnc(Nc3ccc(F)c(Cl)c3)c2cc1C#CC(C)(C)N1CCN(CCOC)CC1` [1bah], with 2.6 nM.

As for `C#Cc1cccc(Nc2ncnc3cc(OCC)c(C#CC(C)(C)N4CCN(CC#N)CC4)cc23)c1` [1bai], the IC50 was 1.8 nM.

Compound `C#Cc1cccc(Nc2ncnc3cc(OCC)c(C#CC(C)(C)N4CCOCC4)cc23)c1` [1baj] registered an IC50 of 3.3 nM. Turning to `C#Cc1cccc(Nc2ncnc3cc(OCC)c(C#CC(C)(C)N4CCN(C)CC4)cc23)c1` [1bam], the IC50 worked out at 3.3 nM.

`C#Cc1cccc(Nc2ncnc3cc(OCC)c(C#CC(C)(C)N(C)CCN(C)C)cc23)c1` [1ban] registered an IC50 of 2.6 nM. Regarding `COc1cc2ncnc(Nc3ccc(F)c(Cl)c3)c2cc1C#CC(C)(C)N1CCN(CC#N)CC1` [1bb], the IC50 amounted to 1.3 nM. On the same count and under the same terms, the value for `COc1cc2ncnc(Nc3ccc(F)c(Cl)c3)c2cc1C#CC(C)(C)N1CCNCC1` [1bc] was 1.6 nM; that for `CCCN1CCN(C(C)(C)C#Cc2cc3c(Nc4ccc(F)c(Cl)c4)ncnc3cc2OC)CC1` [1bd] was 3 nM; that for `COc1cc2ncnc(Nc3ccc(F)c(Cl)c3)c2cc1C#CC(C)(C)N1CCN(CC(C)C)CC1` [1be] was 8 nM. In the case of `COc1cc2ncnc(Nc3ccc(F)c(Cl)c3)c2cc1/C=C/C(C)(C)N1CCN(C)CC1` [1bf], the half-maximal inhibitory concentration (IC50) amounted to 0.82 nM.

Compound `COc1cccc(Nc2ncnc3cc(OC)c(C#CC(C)(C)N4CCN(C)CC4)cc23)c1` [1bh] displayed an IC50 of 4.4 nM.

In turn, `COc1cc2c(Nc3ccc(F)c(Cl)c3)ncnc2cc1C#CC(C)(C)N1CCN(C)CC1` [1bi] showed an IC50 of 1 nM. For `COc1cc2c(Nc3ccc(F)c(Cl)c3)ncnc2cc1C#CC(C)(C)N1CCN(CC#N)CC1` [1bj], the IC50 stood at 2.9 nM. Still for that read-out and setting: the value for `CCOc1cc2ncnc(Nc3ccc(F)c(Cl)c3)c2cc1C#CC(C)(C)N1CCOCC1` [1bk] was 2.1 nM.

Consider `CCOc1cc2ncnc(Nc3ccc(F)c(Cl)c3)c2cc1C#CC(C)(C)N(C)CCOC` [1bl], for which the concentration for half-maximal inhibition (IC50) stood at 2.2 nM. As to `CCOc1cc2ncnc(Nc3ccc(F)c(Cl)c3)c2cc1C#CC(C)(C)N(C)CCC#N` [1bm], half-maximal inhibition (IC50) was put at 2.8 nM.

`CCOc1cc2ncnc(Nc3ccc(F)c(Cl)c3)c2cc1C#CC(C)(C)N1CCCCC1` [1bn] gave an IC50 of 3.5 nM.

On to `CCOc1cc2ncnc(Nc3ccc(F)c(Cl)c3)c2cc1C#CC(C)(C)N(C)CCN(C)C` [1bo], for which the IC50 was determined as 2.2 nM. Still for that read-out and setting: then `CCOc1cc2ncnc(Nc3ccc(F)c(Cl)c3)c2cc1C#CC(C)(C)N1CCN(C)CC1` [1bp], with 2.1 nM; and `CCOc1cc2ncnc(Nc3ccc(F)c(Cl)c3)c2cc1C#CC(C)(C)N(CC)CC` [1br], with 5.7 nM. Regarding `CCOc1cc2ncnc(Nc3ccc(F)c(Cl)c3)c2cc1C#CC(C)(C)N1CCN(CC#N)CC1` [1bs], the IC50 was 1.1 nM. For `CCOc1cc2ncnc(Nc3ccc(F)c(Cl)c3)c2cc1C#CC1(N2CCN(C)CC2)CCCCC1` [1bt], the 50% inhibitory concentration (IC50) is 5 nM. Still for that read-out and setting: the value for `CCOCCN(CCOCC)C(C)(C)C#Cc1cc2c(Nc3ccc(F)c(Cl)c3)ncnc2cc1OCC` [1bu] was 3.2 nM; that for `CCOc1cc2ncnc(Nc3ccc(F)c(Cl)c3)c2cc1C#CC(C)(C)N1CCC(O)CC1` [1bv] was 1.5 nM. On the same count and under the same terms, the value for `CCOc1cc2ncnc(Nc3ccc(F)c(Cl)c3)c2cc1C#CC(C)(C)N1CCCN(C)CC1` [1bw] was 2.8 nM; that for `CCOc1cc2ncnc(Nc3ccc(F)c(Cl)c3)c2cc1C#CC(C)(C)NCCN1CCOCC1` [1bx] was 3.4 nM. The same measure, in the same setting: the value for `CCOc1cc2ncnc(Nc3ccc(F)c(Cl)c3)c2cc1C#CC(C)(C)N1CCN(CC)CC1` [1bz] was 2.2 nM. `C=CC(=O)Nc1cc2c(Nc3ccc(F)c(Cl)c3)ncnc2cc1C#CC(C)(C)N1CCN(CC#N)CC1` [1c]: the IC50 came to 3.9 nM. Same read-out and setting: then `CC(C)(C#Cc1cc2ncnc(Nc3ccc(F)c(Cl)c3)c2cc1NS(C)(=O)=O)N1CCN(CC#N)CC1` [1ca], with 7.7 nM. Take `CN1CCN(C(C)(C)C#Cc2cc3ncnc(Nc4ccc(F)c(Cl)c4)c3cc2NS(C)(=O)=O)CC1` [1cg]: the IC50 amounted to 2.1 nM.

Regarding `CCN1CCN(C(C)(C)C#Cc2cc3ncnc(Nc4ccc(F)c(Cl)c4)c3cc2NS(C)(=O)=O)CC1` [1ch], the IC50 came to 2.6 nM. The compound `CN1CCC(N(C)C(C)(C)C#Cc2cc3ncnc(Nc4ccc(F)c(Cl)c4)c3cc2NS(C)(=O)=O)CC1` [1cj] returned a half-inhibitory concentration (IC50) of 2.7 nM. With `CN1CCN(C2(C#Cc3cc4ncnc(Nc5ccc(F)c(Cl)c5)c4cc3NS(C)(=O)=O)CCCCC2)CC1` [1cm], the IC50 amounted to 5.2 nM. For the compound `CCC(C#Cc1cc2ncnc(Nc3ccc(F)c(Cl)c3)c2cc1NS(C)(=O)=O)(CC)N1CCN(C)CC1` [1cr], half-maximal inhibition (IC50) required 3.4 nM. Same read-out and setting: the value for `CCN(CCC(=O)OC)C(C)(C)C#Cc1cc2ncnc(Nc3ccc(F)c(Cl)c3)c2cc1NS(C)(=O)=O` [1cu] was 5.5 nM; that for `COCCN1CCN(C(C)(C)C#Cc2cc3ncnc(Nc4ccc(F)c(Cl)c4)c3cc2NS(C)(=O)=O)CC1` [1cv] was 1.8 nM.

As to `CC(C)(C#Cc1cc2ncnc(Nc3ccc(F)c(Cl)c3)c2cc1NS(C)(=O)=O)N1CCN(CCC#N)CC1` [1cw], half-maximal inhibition (IC50) required 2.5 nM.

In turn, `CC(C)(C#Cc1cc2ncnc(Nc3ccc(F)c(Cl)c3)c2cc1NS(C)(=O)=O)N1CCCC1` [1cx] gave a half-maximal inhibitory concentration (IC50) of 2.8 nM.

The target in the next assay is T2, mutated c-erbB2 (HER2) constitutively activated, in transformed NIH3T3 cells (A4 cell) (Homo sapiens, UniProt P04626, V659E).
T2 construct: expressed in transfected cells; host or cells: NIH3T3 mouse fibroblast cell line (A4 cell)
T2 sequence (P04626 23-1255 V659E): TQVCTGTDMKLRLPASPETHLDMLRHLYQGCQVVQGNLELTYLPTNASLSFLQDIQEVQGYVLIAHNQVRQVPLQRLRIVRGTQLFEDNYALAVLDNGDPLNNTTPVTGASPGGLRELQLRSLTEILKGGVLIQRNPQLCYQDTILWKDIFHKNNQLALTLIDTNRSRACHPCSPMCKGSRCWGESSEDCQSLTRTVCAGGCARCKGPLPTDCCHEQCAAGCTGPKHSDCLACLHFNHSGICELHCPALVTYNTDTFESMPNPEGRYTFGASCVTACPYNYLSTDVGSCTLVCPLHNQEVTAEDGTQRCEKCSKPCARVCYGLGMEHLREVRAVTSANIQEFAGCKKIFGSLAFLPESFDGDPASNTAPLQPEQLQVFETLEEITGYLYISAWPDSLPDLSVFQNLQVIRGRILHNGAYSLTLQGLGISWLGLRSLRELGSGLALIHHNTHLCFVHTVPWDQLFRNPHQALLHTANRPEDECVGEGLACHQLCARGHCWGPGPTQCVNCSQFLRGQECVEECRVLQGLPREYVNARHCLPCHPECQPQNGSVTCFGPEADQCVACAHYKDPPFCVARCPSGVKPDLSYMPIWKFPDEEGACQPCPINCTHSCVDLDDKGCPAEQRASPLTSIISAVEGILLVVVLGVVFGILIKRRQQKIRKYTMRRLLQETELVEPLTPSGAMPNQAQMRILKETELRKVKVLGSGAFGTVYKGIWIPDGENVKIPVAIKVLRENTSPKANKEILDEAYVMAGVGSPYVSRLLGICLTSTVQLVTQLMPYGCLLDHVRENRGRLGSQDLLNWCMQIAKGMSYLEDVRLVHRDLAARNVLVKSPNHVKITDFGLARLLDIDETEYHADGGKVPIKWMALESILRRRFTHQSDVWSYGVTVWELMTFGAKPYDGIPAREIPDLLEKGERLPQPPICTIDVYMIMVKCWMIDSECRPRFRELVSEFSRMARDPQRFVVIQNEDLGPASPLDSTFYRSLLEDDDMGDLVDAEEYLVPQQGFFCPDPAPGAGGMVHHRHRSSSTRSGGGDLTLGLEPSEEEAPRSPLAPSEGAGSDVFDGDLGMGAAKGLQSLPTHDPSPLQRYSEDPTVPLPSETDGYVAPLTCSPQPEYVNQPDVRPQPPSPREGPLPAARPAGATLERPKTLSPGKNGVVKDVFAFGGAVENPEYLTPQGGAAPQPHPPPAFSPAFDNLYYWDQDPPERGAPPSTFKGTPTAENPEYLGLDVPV
Kind of assay: HER2 tyrosine kinase inhibitory action (phosphotyrosine Western blotting in A4 cells). As to conditions: 0.1 μM, 2 hrs, signal without compound = 100%, read-out: % of control at 0.1 μM (phosphorylation signal). Format: cell-based. On the procedure: (2) HER2 Tyrosine Kinase Inhibitory Action (Method)
As the cells, NIH3T3 mouse fibroblast cell line (provided by Institute of Development, Aging and Cancer, Tohoku University Cell Resource Center for Biomedical Research) transformed with mutated c-erbB2 constitutively activated by substituting valine at position 659 for glutamic acid was used. In the following, the cell is referred to as A4 cell. This cell line was cultured in DMEM/F12 mixed medium (hereinafter a complete medium) supplemented with 10% FBS in a plastic dish at 37° C., 5% CO2, 95% air.
The A4 cells suspended in a complete medium were seeded in a 12-well plate at 3×10^5/well, and confluent cells were cultured with the compound at 37° C. for 2 hrs. The cells were washed once with PBS, re-suspended in a lysis buffer (60 mM Tris (pH 6.8), 2% SDS, 10% glycerol, 5% beta-mercaptoethanol, 0.001% bromophenol blue), treated by ultrasonication and applied to Western blotting as a whole cell lysate.
The whole cell lysate (protein amount 25 μg) was applied to 7.5% SDS-polyacrylamide electrophoresis and transferred to PVDF membrane. The membrane was blocked and incubated with antiphosphotyrosine mouse monoclonal antibody in Tris buffer containing 0.1% Tween 20 and then treated with HRP-labeled antimouse second antibody. The membrane was developed with a chemiluminescent reagent. The chemiluminescence was taken with a lumino CCD camera and recorded electronically.
In general terms: In western blotting, separated proteins are transferred to a membrane and probed.
In the case of `C=CC(=O)Nc1cc2c(Nc3ccc(F)c(Cl)c3)ncnc2cc1C#CCCN1CCN(C)CC1` [1ac], the remaining activity at 0.1 µM came to 9%.

Turning to `C=CC(=O)Nc1cc2c(Nc3ccc(F)c(Cl)c3)ncnc2cc1C#CC(C)(C)N1CCNCC1` [1ap], the remaining activity at 0.1 µM came to 74%.

The assay is the same for the next values; noted with them: 1 μM, 2 hrs, signal without compound = 100%, read-out: % of control at 1 μM (phosphorylation signal).
For `C=CC(=O)Nc1cc2c(Nc3ccc(F)c(Cl)c3)ncnc2cc1C#CCCN1CCN(C)CC1` [1ac], the remaining activity at 1 µM came to 3%. On the same count and under the same terms, the value for `C=CC(=O)Nc1cc2c(Nc3ccc(F)c(Cl)c3)ncnc2cc1C#CC(C)(C)N1CCNCC1` [1ap] was 24%.

Source of the values: US7294629B2, “Quinazoline derivatives” (Mitsubishi Pharma Corporation, priority 2001, dated 2007).
